From ChEMBL document CHEMBL1154012, “Synthesis and SAR of novel tricyclic quinoxalinone inhibitors of poly(ADP-ribose)polymerase-1 (PARP-1)” (Bioorg Med Chem Lett, 2009) come the findings set out here.

pEC50, pKi: −log10 of the molar value.

The target of test [1] is T1, Poly [ADP-ribose] polymerase 1 (Homo sapiens, UniProt P09874).
Description: Inhibition of PARP1 by microplate scintillation counting
The target in test [2] is T1, Poly [ADP-ribose] polymerase 1. The source holds these as a separate data set.
Description: Inhibition of PARP1 in human C41 cells by DAPI staining-based FITC analysis

T1 sequence (P09874 whole entry): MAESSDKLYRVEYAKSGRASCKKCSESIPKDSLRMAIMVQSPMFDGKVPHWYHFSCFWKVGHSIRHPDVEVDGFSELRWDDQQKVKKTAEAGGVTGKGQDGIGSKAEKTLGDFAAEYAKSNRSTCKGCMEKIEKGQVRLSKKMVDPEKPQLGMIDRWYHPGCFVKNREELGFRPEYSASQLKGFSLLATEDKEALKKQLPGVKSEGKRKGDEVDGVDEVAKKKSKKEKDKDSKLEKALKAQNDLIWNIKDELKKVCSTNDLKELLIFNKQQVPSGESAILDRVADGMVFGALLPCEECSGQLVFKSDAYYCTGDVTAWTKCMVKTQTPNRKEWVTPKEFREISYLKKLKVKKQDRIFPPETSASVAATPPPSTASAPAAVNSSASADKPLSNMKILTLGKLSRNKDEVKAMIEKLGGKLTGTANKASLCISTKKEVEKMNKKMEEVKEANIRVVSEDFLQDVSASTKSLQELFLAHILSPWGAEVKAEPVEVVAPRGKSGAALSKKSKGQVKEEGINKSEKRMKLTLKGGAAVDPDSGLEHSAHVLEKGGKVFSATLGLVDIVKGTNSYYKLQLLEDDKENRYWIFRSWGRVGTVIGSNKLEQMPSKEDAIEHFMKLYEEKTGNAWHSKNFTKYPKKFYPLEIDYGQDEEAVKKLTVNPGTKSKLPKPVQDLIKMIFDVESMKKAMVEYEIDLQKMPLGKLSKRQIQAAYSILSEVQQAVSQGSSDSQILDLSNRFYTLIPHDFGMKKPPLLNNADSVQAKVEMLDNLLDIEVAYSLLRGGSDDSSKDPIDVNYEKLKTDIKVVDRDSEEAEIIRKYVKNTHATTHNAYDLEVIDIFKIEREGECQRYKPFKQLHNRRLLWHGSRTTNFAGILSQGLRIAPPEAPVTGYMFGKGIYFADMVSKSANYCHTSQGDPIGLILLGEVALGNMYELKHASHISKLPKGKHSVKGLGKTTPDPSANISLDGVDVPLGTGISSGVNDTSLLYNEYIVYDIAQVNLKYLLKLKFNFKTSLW

`O=c1[nH]c2ccc(CNC3CC3)cc2n2cccc12`: the pKi in test [1] was 7.51. For the same molecule, in test [2], the pEC50 is 7.60.

Regarding `CN(C)Cc1ccc2c(c1)NC(=O)C1CCCN21` (stereo not drawn), the negative-log Ki (pKi) in test [1] is 6.72. In addition, the pEC50 in test [2] is 6.19.

Take `O=c1[nH]c2ccc(CN3CCCCC3)cc2n2cccc12`: the negative-log EC50 (pEC50) in test [2] was 7.51.

The molecule `O=c1[nH]c2cc(CN3CCCC3)ccc2n2cccc12` showed a negative-log EC50 (pEC50) in test [2] of 8.22.

For `O=c1[nH]c2cc(CNCc3ccccc3)ccc2n2cccc12`, the negative logarithm of the Ki (pKi) in test [1] is 6.79. In addition, the pEC50 in test [2] was 6.79.

The term pKi denotes −log10 of the Ki, conventionally taken in molar units. Higher therefore signals a small Ki. The pEC50 is the negative decadic logarithm of the EC50, by convention in mol/L. Read a high pEC50 as a low EC50.
